This note sets out measurements from patent US11116740B2, “Methods for use in support of planned supplement and food ingredient products for diagnosis and treatment of metabolic syndrome” (priority 2015, dated 2021).

The series in a line: Serum fatty acid metabolomics (UPLC-MS/MS), feeding study. As to the method:
This study examined global metabolic profiles in six dolphins (“Group A dolphins”). The dolphins lived in netted enclosures within San Diego Bay. The dolphins started on a 100% capelin diet. Group A dolphins were fed one-third of their daily diet in the morning after their routine overnight fast and 2h postprandial, in-water, and trained blood samples were drawn (typically near 10:00 a.m.). An additional four dolphins (“Group C dolphins”) were fed the capelin diet.
Two hour post-prandial samples were collected from the dolphins at baseline (week 0) and at four time points following the switch to the modified diet: 6, 12, 18, and 24 weeks. Routine monthly samples collected from four reference dolphins that were housed in the same environment as the Group A dolphins were assessed for glucose, triglycerides, ferritin, and percent serum fatty acids.
Sample Preparation: Samples were prepared using the automated MicroLab STAR® system from Hamilton Company. Several recovery standards were added prior to the first step in the extraction process for QC purposes. Proteins were precipitated with methanol under vigorous shaking for 2 min (Glen Mills GenoGrinder 2000) followed by centrifugation. The resulting extract was divided into five fractions: two for analysis by two separate reverse phase (RP)/UPLC-MS/MS methods with positive ion mode electrospray ionization (ESI), one for analysis by RP/UPLC-MS/MS with negative ion mode ESI, one for analysis by HILIC/UPLC-MS/MS with negative ion mode ESI, and one sample was reserved. Samples were placed briefly on a TurboVap® (Zymark) to remove the organic solvent. The sample extracts were stored overnight under nitrogen before preparation for analysis.
Ultrahigh Performance Liquid Chromatography-Tandem Mass Spectroscopy (UPLC-MS/[…]): Each of four methods utilized a Waters ACQUITY ultra-performance liquid chromatography (UPLC) and a Thermo Scientific Q-Exactive high resolution/accurate mass spectrometer interfaced with a heated electrospray ionization (HESI-II) source and Orbitrap mass analyzer operated at 35,000 mass resolution. A sample extract was dried, then reconstituted in solvents compatible to each of the four methods. Each reconstitution solvent contained a series of standards at fixed concentrations to ensure injection and chromatographic consistency. A first aliquot was analyzed using acidic positive ion conditions, chromatographically optimized for more hydrophilic compounds. In this method, the extract was gradient eluted from a C18 column (Waters UPLC BEH C18-2. 1×100 mm, 1.7 μm) using water and methanol, containing 0.05% perfluoropentanoic acid (PFPA) and 0.1% formic acid (FA). A second aliquot was also analyzed using acidic positive ion conditions, however it was chromatographically optimized for more hydrophobic compounds. In this method, the extract was gradient eluted from the same afore mentioned C18 column using methanol, acetonitrile, water, 0.05% PFPA and 0.01% FA and was operated at an overall higher organic content. A third aliquot was analyzed using basic negative ion optimized conditions using a separate dedicated C 18 column. The basic extracts were gradient eluted from the column using methanol and water, however with 6.5 mM Ammonium Bicarbonate at pH 8. […] The MS analysis alternated between MS and data-dependent MSn scans using dynamic exclusion. The scan range varied slighted between methods but covered 70-1000 m/z.
Data Extraction and Compound Identification: Raw data was extracted, peak-identified and QC processed using Metabolon's hardware and software. The systems were based on a web-service platform utilizing Microsoft's .NET technologies, which ran on high-performance application servers and fiber-channel storage arrays in clusters to provide active failover and load-balancing. Compounds were identified by comparison to library entries of purified standards or recurrent unknown entities.

The mark [1] stands for this setting: Group A dolphins, modified diet, proportional to value at outset of study.
The mark [2] stands for this setting: bottlenose dolphin (Tursiops truncatus), in vivo, 6 weeks.
Setting [3] is: bottlenose dolphin (Tursiops truncatus), in vivo, 18 weeks.
[4] abbreviates: bottlenose dolphin (Tursiops truncatus), in vivo, 24 weeks.
[5] abbreviates: bottlenose dolphin (Tursiops truncatus), in vivo, 12 weeks.

Take `CCCCCCCC/C=C\CCCCCCCCCCCC(=O)O` [erucate (22:ln9), erucate]: where the note is “in vivo”, the “serum concentration 6 wk / 0 wk” value came out at 0.71, the “serum concentration 12 wk / 0 wk” value was 0.81, the “serum concentration 18 wk / 0 wk” value turned out to be 0.68 and the “serum concentration 24 wk / 0 wk” value is listed as 0.45.

In the case of `CCCCCCCCCCCCCC(=O)O` [myristate (14:0), myristate], under setting [1], the “serum concentration 6 wk / 0 wk” value is reported as 0.8, the “serum concentration 12 wk / 0 wk” value is on record as 0.87, the “serum concentration 18 wk / 0 wk” value is reported as 0.74 and the “serum concentration 24 wk / 0 wk” value was found to be 0.58.

For the compound `CCCCCCCCC(=O)O` [perlargonate (9:0), nonanoic acid], the “serum concentration 6 wk / 0 wk” value under setting [2] is given as 1.26. For the same compound, the “serum concentration 18 wk / 0 wk” value under setting [3] turned out to be 1.56. In addition, under setting [4], the “serum concentration 24 wk / 0 wk” value is recorded as 1.41.

Consider “oleate/vaccenate [oleate/vaccenate (18:1)]”, for which, where the note is “in vivo”, the “serum concentration 6 wk / 0 wk” value was 0.98, the “serum concentration 12 wk / 0 wk” value worked out at 1.04, the “serum concentration 18 wk / 0 wk” value was determined as 0.84 and the “serum concentration 24 wk / 0 wk” value is listed as 0.64.

Turning to `CCCCC/C=C\C/C=C\CCCCCCCCCCCC(=O)O` [docosadienoate (22:2n6), docosadienoate], where the note is “in vivo”, the “serum concentration 6 wk / 0 wk” value came to 0.85, the “serum concentration 12 wk / 0 wk” value was 1.08, the “serum concentration 18 wk / 0 wk” value worked out at 0.99 and the “serum concentration 24 wk / 0 wk” value worked out at 0.54.

As for `CCCCC/C=C\C/C=C\C/C=C\C/C=C\C/C=C\CCC(=O)O` [docosapentaenoate (n6 DPA; 22:5n6), all-cis-4,7,10,13,16-docosapentaenoic acid], under “in vivo”, the “serum concentration 6 wk / 0 wk” value was found to be 1.68, the “serum concentration 12 wk / 0 wk” value was 2.5, the “serum concentration 18 wk / 0 wk” value is given as 2.33 and the “serum concentration 24 wk / 0 wk” value amounted to 2.09.

Regarding `CCCCCCCC/C=C\CCCCCCCCCCCCCC(=O)O` [nervonate (24:ln9)*, nervonate], where the note is “in vivo”, the “serum concentration 6 wk / 0 wk” value stood at 0.71, the “serum concentration 12 wk / 0 wk” value was found to be 1.41, the “serum concentration 18 wk / 0 wk” value turned out to be 0.74 and the “serum concentration 24 wk / 0 wk” value was 0.62.

With `CC/C=C\C/C=C\C/C=C\C/C=C\C/C=C\CCCC(=O)O` [eicosapentaenoate (EPA; 20:5n3), eicosapentaenoate], the “serum concentration 6 wk / 0 wk” value under setting [2] is on record as 0.88. Besides, the “serum concentration 12 wk / 0 wk” value under setting [5] was determined as 0.99. For the same compound, the “serum concentration 18 wk / 0 wk” value under setting [3] amounted to 0.88. For the same compound, the “serum concentration 24 wk / 0 wk” value under setting [4] came out at 0.57.

On to `CCCCCCC(=O)O` [heptanoate (7:0), heptanoate], for which, under setting [1], the “serum concentration 6 wk / 0 wk” value is listed as 1.42, the “serum concentration 12 wk / 0 wk” value was found to be 1.02, the “serum concentration 18 wk / 0 wk” value is recorded as 1.23 and the “serum concentration 24 wk / 0 wk” value came to 1.21.

With `CCCCC/C=C\C/C=C\CCCCCCCCCC(=O)O` [dihomo-linoleate (20:2n6), dihomo-linoleate], for the setting “in vivo”, the “serum concentration 6 wk / 0 wk” value was 0.9, the “serum concentration 12 wk / 0 wk” value came to 1.12 and the “serum concentration 24 wk / 0 wk” value amounted to 0.73.

In the case of `CCCCCC(=O)O` [caproate (6:0), caproate], under setting [1], the “serum concentration 6 wk / 0 wk” value worked out at 0.98, the “serum concentration 12 wk / 0 wk” value was 1.01, the “serum concentration 18 wk / 0 wk” value came to 0.92 and the “serum concentration 24 wk / 0 wk” value amounted to 0.76.

With `CCCCCC/C=C\CCCCCCCC(=O)O` [palmitoleate (16:ln7), palmitoleate], where the note is “in vivo”, the “serum concentration 6 wk / 0 wk” value is given as 0.85, the “serum concentration 12 wk / 0 wk” value is reported as 0.99, the “serum concentration 18 wk / 0 wk” value was found to be 0.76 and the “serum concentration 24 wk / 0 wk” value is recorded as 0.54.

“docosapentaenoate [docosapentaenoate (n3 DPA; 22:5n3)]”: where the note is “in vivo”, the “serum concentration 6 wk / 0 wk” value was 1.13, the “serum concentration 12 wk / 0 wk” value is on record as 1.37, the “serum concentration 18 wk / 0 wk” value came to 1.27 and the “serum concentration 24 wk / 0 wk” value stood at 0.78.

In the case of `CCCCCCCCCCCCCCCCCCC(=O)O` [nonadecanoate (19:0), nonadecanoate], under “in vivo”, the “serum concentration 6 wk / 0 wk” value was 1.22, the “serum concentration 12 wk / 0 wk” value turned out to be 1.65, the “serum concentration 18 wk / 0 wk” value was found to be 1.79 and the “serum concentration 24 wk / 0 wk” value was 1.28.

Turning to `CCCCCCCC(=O)O` [caprylate (8:0), caprylate], under setting [1], the “serum concentration 6 wk / 0 wk” value is listed as 1.1, the “serum concentration 12 wk / 0 wk” value amounted to 1.07, the “serum concentration 18 wk / 0 wk” value is 0.96 and the “serum concentration 24 wk / 0 wk” value amounted to 1.12.

Consider `CC/C=C\C/C=C\C/C=C\C/C=C\C/C=C\C/C=C\CCC(=O)O` [docosahexaenoate (DHA; 22:6n3), docosahexaenoate], for which, under setting [1], the “serum concentration 6 wk / 0 wk” value is on record as 1.05, the “serum concentration 12 wk / 0 wk” value is reported as 1.23, the “serum concentration 18 wk / 0 wk” value amounted to 1.06 and the “serum concentration 24 wk / 0 wk” value was 0.74.

For the compound linolenate, under “in vivo”, the “serum concentration 6 wk / 0 wk” value was 1.13, the “serum concentration 12 wk / 0 wk” value was 1.1, the “serum concentration 18 wk / 0 wk” value is on record as 0.97 and the “serum concentration 24 wk / 0 wk” value came out at 0.98.

Turning to `CCCC/C=C\CCCCCCCC(=O)O` [myristoleate (14:ln5), myristoleate], for the setting “in vivo”, the “serum concentration 6 wk / 0 wk” value came to 1.45, the “serum concentration 12 wk / 0 wk” value came out at 1.55, the “serum concentration 18 wk / 0 wk” value was 0.97 and the “serum concentration 24 wk / 0 wk” value is given as 1.02.

`CCCCC/C=C\C/C=C\CCCCCCCC(=O)O` [linoleate (18:2n6), linoleate]: the “serum concentration 6 wk / 0 wk” value under setting [2] was 0.87. Moreover, under setting [5], the “serum concentration 12 wk / 0 wk” value was 0.93. Further, the “serum concentration 18 wk / 0 wk” value under setting [3] is reported as 0.76. In addition, the “serum concentration 24 wk / 0 wk” value under setting [4] was determined as 0.66.

Take eicosenoate [eicosenoate (20:1)]: where the note is “in vivo”, the “serum concentration 6 wk / 0 wk” value was 0.72, the “serum concentration 12 wk / 0 wk” value came to 0.81, the “serum concentration 18 wk / 0 wk” value is on record as 0.72 and the “serum concentration 24 wk / 0 wk” value was 0.43.

In the case of `CCCCC/C=C\C/C=C\C/C=C\C/C=C\CCCCCC(=O)O` [adrenate (22:4n6), all-cis-7,10,13,16-docosatetraenoic acid], for the setting “in vivo”, the “serum concentration 6 wk / 0 wk” value was found to be 1.51, the “serum concentration 12 wk / 0 wk” value amounted to 2.17, the “serum concentration 18 wk / 0 wk” value came to 2.82 and the “serum concentration 24 wk / 0 wk” value was 1.73.

In the case of `CCCCCCC=CCCCC(=O)O` [5-dodecenoate (12:ln7), 5-dodecenoate], under “in vivo”, the “serum concentration 6 wk / 0 wk” value was determined as 1.49, the “serum concentration 12 wk / 0 wk” value is 1.67, the “serum concentration 18 wk / 0 wk” value is 1.08 and the “serum concentration 24 wk / 0 wk” value is reported as 1.11.

With `CCCCCCCCC=CCCCCCCCCC(=O)O` [10-nonadecenoate (19:ln9), 10-nonadecenoate], under “in vivo”, the “serum concentration 6 wk / 0 wk” value was determined as 1.05, the “serum concentration 12 wk / 0 wk” value came to 1.28, the “serum concentration 18 wk / 0 wk” value is given as 1.17 and the “serum concentration 24 wk / 0 wk” value is 0.8.

Take `CCCCCCC=CCCCCCCCCC(=O)O` [10-heptadecenoate (17:ln7), 10-heptadecenoate]: where the note is “in vivo”, the “serum concentration 6 wk / 0 wk” value stood at 1.12, the “serum concentration 12 wk / 0 wk” value was found to be 1.38, the “serum concentration 18 wk / 0 wk” value is 1.35 and the “serum concentration 24 wk / 0 wk” value turned out to be 0.87.

Take `C=CCCCCCCCCC(=O)O` [10-undecenoate (1 l:ln1), 10-undecenoate]: where the note is “in vivo”, the “serum concentration 6 wk / 0 wk” value amounted to 1.41, the “serum concentration 12 wk / 0 wk” value amounted to 1.54, the “serum concentration 18 wk / 0 wk” value is on record as 1.22 and the “serum concentration 24 wk / 0 wk” value is recorded as 1.75.

Consider `CC/C=C\C/C=C\C/C=C\C/C=C\CCCCC(=O)O` [stearidonate (18:4n3), stearidonate], for which, for the setting “in vivo”, the “serum concentration 12 wk / 0 wk” value was determined as 0.71, the “serum concentration 18 wk / 0 wk” value is given as 0.61 and the “serum concentration 24 wk / 0 wk” value is 0.58.
